± gives the expanded uncertainty stated by the source.
Assay: xn = mol fraction of the nth substance listed
Settings: 311 K, Fluid (supercritical or subcritical phases), Pulse-echo method

## CCCC [butane] + C
2068 kPa, x2 = 0.894
  speed of sound: 381.6 ± 1 m/s
2758 kPa, x2 = 0.894
  speed of sound: 378.5 ± 1 m/s
3447 kPa, x2 = 0.894
  speed of sound: 375.5 ± 0.9 m/s
3930 kPa, x2 = 0.158
  speed of sound: 760.1 ± 1.7 m/s
3999 kPa, x2 = 0.158
  speed of sound: 760.7 ± 1.7 m/s
4137 kPa, x2 = 0.158
  speed of sound: 762.3 ± 1.7 m/s
4137 kPa, x2 = 0.894
  speed of sound: 372.7 ± 0.9 m/s
4826 kPa, x2 = 0.158
  speed of sound: 778.7 ± 1.7 m/s
4826 kPa, x2 = 0.894
  speed of sound: 370.1 ± 0.9 m/s
5516 kPa, x2 = 0.158
  speed of sound: 793.5 ± 1.7 m/s
5516 kPa, x2 = 0.894
  speed of sound: 368 ± 0.9 m/s
6205 kPa, x2 = 0.158
  speed of sound: 805.6 ± 1.7 m/s
6205 kPa, x2 = 0.894
  speed of sound: 366.4 ± 0.9 m/s
6895 kPa, x2 = 0.158
  speed of sound: 817.6 ± 1.8 m/s
6895 kPa, x2 = 0.894
  speed of sound: 365.2 ± 0.9 m/s
7584 kPa, x2 = 0.894
  speed of sound: 364.8 ± 0.9 m/s
8274 kPa, x2 = 0.894
  speed of sound: 365.1 ± 0.9 m/s
8963 kPa, x2 = 0.894
  speed of sound: 366 ± 0.9 m/s
9653 kPa, x2 = 0.894
  speed of sound: 367.8 ± 0.9 m/s
10342 kPa, x2 = 0.158
  speed of sound: 866 ± 1.9 m/s
10342 kPa, x2 = 0.894
  speed of sound: 370.3 ± 0.9 m/s
11032 kPa, x2 = 0.894
  speed of sound: 373.7 ± 0.9 m/s
11721 kPa, x2 = 0.894
  speed of sound: 378 ± 1 m/s
12411 kPa, x2 = 0.894
  speed of sound: 383.1 ± 1 m/s
13100 kPa, x2 = 0.894
  speed of sound: 388.9 ± 1 m/s
13128 kPa, x2 = 0.724
  speed of sound: 314.6 ± 0.9 m/s
13148 kPa, x2 = 0.724
  speed of sound: 316.5 ± 0.9 m/s
13231 kPa, x2 = 0.724
  speed of sound: 323.7 ± 0.9 m/s
13307 kPa, x2 = 0.724
  speed of sound: 329.7 ± 0.9 m/s
13472 kPa, x2 = 0.724
  speed of sound: 344 ± 0.9 m/s
13790 kPa, x2 = 0.158
  speed of sound: 906.3 ± 1.9 m/s
13790 kPa, x2 = 0.894
  speed of sound: 395.6 ± 1 m/s
13845 kPa, x2 = 0.724
  speed of sound: 366.1 ± 0.9 m/s
14479 kPa, x2 = 0.724
  speed of sound: 395.6 ± 1 m/s
14479 kPa, x2 = 0.894
  speed of sound: 402.9 ± 1 m/s
15168 kPa, x2 = 0.724
  speed of sound: 420.7 ± 1 m/s
15168 kPa, x2 = 0.894
  speed of sound: 410.8 ± 1 m/s
15858 kPa, x2 = 0.724
  speed of sound: 443.6 ± 1.1 m/s
15858 kPa, x2 = 0.894
  speed of sound: 419.4 ± 1 m/s
16547 kPa, x2 = 0.724
  speed of sound: 464.8 ± 1.1 m/s
16547 kPa, x2 = 0.894
  speed of sound: 428.4 ± 1 m/s
17237 kPa, x2 = 0.724
  speed of sound: 484.4 ± 1.1 m/s
17237 kPa, x2 = 0.894
  speed of sound: 438 ± 1.1 m/s

Source: the NIST ThermoML archive (doi:10.1021/je049622g)
